Assay results reported in ChEMBL document CHEMBL1158315, “Sclerotiamide: a new member of the paraherquamide class with potent antiinsectan activity from the sclerotia of Aspergillus sclerotiorum” (1996).
Calls of active or inactive are those of the source. No cut-off for these calls is given here.

Assays:
Helicoverpa zea [1] = experiment: Insecticidal activity against corn ear worm first instar larvae assessed as cuticle/exoskeleton rupture in dead larvae at 200 ppm administered with standard test diet; assay type: functional, organism-based
Helicoverpa zea [2] = experiment: Insecticidal activity against corn ear worm first instar larvae assessed as reduction in growth at 200 ppm administered with standard test diet relative to control; assay type: functional; parameters: scale not given: the % may be the effect or the level left
Helicoverpa zea [3] = experiment: Insecticidal activity against corn ear worm first instar larvae assessed as blackened in dead larvae at 200 ppm administered with standard test diet; assay type: functional, organism-based
Carpophilus = experiment: Antifeedant activity against Carpophilus hemipterus adult assessed as reduction in feeding rate at 100 ppm; assay type: functional
Helicoverpa zea [4] = experiment: Insecticidal activity against corn ear worm first instar larvae assessed as laterally shriveled in dead larvae at 200 ppm administered with standard test diet; assay type: functional, organism-based
Helicoverpa zea [5] = experiment: Insecticidal activity against corn ear worm first instar larvae assessed as mortality at 200 ppm administered with standard test diet; assay type: functional
Helicoverpa zea [6] = experiment: Insecticidal activity against corn ear worm first instar larvae assessed as bloating of area just prior to rear body in surviving larvae at 200 ppm administered with standard test diet; assay type: functional, organism-based
[7] = Cytotoxicity against human NCI60 cells; assay type: functional

SMILES: CC1(C)C=Cc2c(ccc3c2NC(=O)[C@@]32[C@H](O)[C@@]34NC(=O)[C@]5(CCCN5C3=O)C[C@H]4C2(C)C)O1 [SCLEROTIAMIDE]
- Activity (Helicoverpa zea [1]): Active
- Activity (Helicoverpa zea [2]): 98%
- Activity (Helicoverpa zea [3]): Active
- GI50 (Carpophilus): > 25 µg/mL
- Activity (Helicoverpa zea [4]): Active
- Activity (Helicoverpa zea [5]): 46%
- Activity (Helicoverpa zea [6]): Active
- Activity [7]: 44%
